# Results taken from patent publication US20160374979A1, “Method of Treatment of Alopecia with Monoterpenoids” (CELLMID LIMITED, priority 2013, published 2016).
# B1: FGF-5: FGF-5 protein (R&D Systems) added to follicle culture medium at 300 ng/mL (protein, UniProt P12034 21-268, looked up)
# Fibroblast growth factor 5: HGEKRLAPKGQPGPAATDRNPRGSSSRQSSSSAMSSSSASSSPAASLGSQGSGLEQSSFQWSPSGRRTGSLYCRVGIGFHLQIYPDGKVNGSHEANMLSVLEIFAVSQGIVGIRGVFSNKFLAMSKKGKLHASAKFTDDCKFRERFQENSYNTYASAIHRTEKTGREWYVALNKRGKAKRGCSPRVKPQHISTHFLPRFKQSEQPELSFTVTVPEKKKPPSPIKPKIPLSAPRKNTNSVKYRLKFRFG
# Experiments:
# alopecia patients = settings: cited from earlier work
# [1] = system: murine vibrissae follicles; assay: Hair shaft elongation of murine vibrissae follicles cultured ex vivo; set-up: species or system C3H mice; settings: exogenous FGF-5 300 ng/mL, 8 days, versus control (FIGS. 20 and 21)
# From the text: Five week old male C3H mice (supplied by Japan SLC, lnc., Hamamatsu, Japan) were used for isolation of vibrissae follicles. The mice were sacrificed and the vibrissae follicles were carefully dissected from the mystacial pad. Briefly, the mystacial pad was cut into two sides (left and right). The skin cut, picked at the edge by tweezers, was washed in (i) 70% Ethanol for 30 seconds, (ii) PBS for 10 seconds, (iii) fresh PBS for 10 seconds, and (iv) another fresh PBS for 10 seconds. This washing process was repeated twice. After washing, the skin cut was placed inverted to expose the vibrissae follicles in Dulbecco's Modified Eagle's Medium (DMEM; Wako Pure Chemical, Osaka, Japan) at 37° C. Under a dissecting microscope, the surrounding tissue was removed from the follicles using tweezers, carefully so as not to destroy the structure of the follicles. The isolated follicles were then placed immediately into Williams' E medium (Life Technologies, Carlsbad, USA).
# From the isolated mouse vibrissae follicles, only early anagen follicles were selected and randomized into groups with 30 follicles per group. […]
# Follicles in each of the treatment and control groups were incubated at 37° C. at 5% CO2 for 8 days, while exchanging the respective culture mediums every 2 days. From Day 1, elongation of hair shafts was observed and the elongation length was measured for each hair shaft every 24 hours from Day 1 to Day 8 using a micrometer under microscope. […]
# Follicles in each of the treatment and control groups were incubated at 37° C. at 5% CO2 for 5 days, while exchanging the culture medium every 3 days. From Day 1, elongation of hair shafts was observed and the elongation length was measured for each hair shaft every 24 hours from Day 1 to Day 5. using a micrometer under microscope. […]
molecule,measurement,setting,value
Nc1cc(N2CCCCC2)nc(N)[n+]1[O-] [Minoxidil],"patients with irritation of the scalp (dryness, scaling, itching, redness)",alopecia patients; 2% solution,approximately 7%
"CC(C)(C)NC(=O)[C@H]1CC[C@H]2[C@@H]3CC[C@H]4NC(=O)C=C[C@]4(C)[C@H]3CC[C@]12C [finasteride, Finasteride]",balding male recipients with poor or no response,alopecia patients; finasteride treatment,≥ 35%
B1,rate of hair shaft elongation,[1],slow the rate of hair shaft elongation over time
